Test [1] deals with human CLEC-2 (hFc-CLEC-2) (Homo sapiens, UniProt Q9P126). Kind of test: biochemical.
Test [2] concerns the target mouse CLEC-2 (Fc-mCLEC-2) (Mus musculus, UniProt Q9JL99). Put plainly: biochemical.

pKd: −log10 of the molar value.

Sequence of mouse CLEC-2 (Fc-mCLEC-2) (Q9JL99 53-229 limits assumed): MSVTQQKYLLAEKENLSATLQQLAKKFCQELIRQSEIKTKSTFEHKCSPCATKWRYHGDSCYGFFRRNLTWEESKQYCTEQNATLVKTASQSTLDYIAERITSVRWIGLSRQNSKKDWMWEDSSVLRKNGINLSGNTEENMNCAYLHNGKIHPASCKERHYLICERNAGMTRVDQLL
Sequence of human CLEC-2 (hFc-CLEC-2) (Q9P126 55-229 limits assumed): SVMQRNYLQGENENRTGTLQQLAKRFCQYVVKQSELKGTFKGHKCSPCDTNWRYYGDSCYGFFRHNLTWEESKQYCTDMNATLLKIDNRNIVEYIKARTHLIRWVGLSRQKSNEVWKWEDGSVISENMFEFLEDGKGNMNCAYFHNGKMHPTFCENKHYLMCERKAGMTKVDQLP

In general, pKd refers to the negative decadic logarithm of the Kd, by convention in mol/L. High values mean a low Kd, low ones a high Kd. Take `C=CC1=C(C)C2=Cc3c(C=C)c(C)c4[n]3[Fe]([Cl])[n]3c(c(C)c(CCC(=O)O)c3=CC3=NC(=C4)C(C)=C3CCC(=O)O)=CC1=N2` [hemin]: the pKd in test [1] and in test [2] was roughly 6.70 throughout.

The values above are taken from article PMC7849553 (Haematologica, 2020).
